Measured values: patent US20240287138A1, “CYCLIC PEPTIDES FOR INHIBITING TNF RECEPTOR 1 ACTIVITY” (Merck Sharp & Dohme LLC, priority 2023, published 2024)
pKd: −log10 of the molar value. Numbered stars: 1 amine (or outer) side, 2 acyl side, 3 side chain; on linkers, the order of the positions; unused ones are H or OH. Square brackets hold non-standard residues; d marks the D form. Peptide text beside a SMILES is read from it. * marks the point of attachment. Trp(βS-Me,7-OMe) = COc1cccc2c([C@H](C)[C@H](N)C(=O)O)c[nH]c12; Phe(4-SO2NH2) = N[C@@H](Cc1ccc(S(N)(=O)=O)cc1)C(=O)O; Phe(2-F,4-COOH) = N[C@@H](Cc1ccc(C(=O)O)cc1F)C(=O)O; dPro(trans-4-NMe2) = CN(C)[C@@H]1CN[C@@H](C(=O)O)C1; Trp(7-CN) = N#Cc1cccc2c(C[C@H](N)C(=O)O)c[nH]c12; Trp(7-Cl) = N[C@@H](Cc1c[nH]c2c(Cl)cccc12)C(=O)O; Phe(3-CONH2) = NC(=O)c1cccc(C[C@H](N)C(=O)O)c1; Phe(4-CONH2) = NC(=O)c1ccc(C[C@H](N)C(=O)O)cc1; Phe(4-COOH) = N[C@@H](Cc1ccc(C(=O)O)cc1)C(=O)O; Trp(7-aza) = N[C@@H](Cc1c[nH]c2ncccc12)C(=O)O; Pip(5R-OH) = O=C(O)[C@@H]1CC[C@@H](O)CN1; X1 = O=C([C@@H]1CC[C@H](N[*:1])C1)[*:2]; Gly(Nα-CH2CH2CONH2) = NC(=O)CCNCC(=O)O; Pip(4-aza) = O=C(O)[C@@H]1CNCCN1; 4Pal = N[C@@H](Cc1ccncc1)C(=O)O; dHyp = O=C(O)[C@H]1C[C@H](O)CN1; Ahp(2) = CCCCC[C@H](N)C(=O)O; αMeS = C[C@](N)(CO)C(=O)O; Carboxymethyl = O=C(O)C*; Nle = CCCC[C@H](N)C(=O)O; Sar = CNCC(=O)O

Key:
human TNFR2 ECD protein = molecular target: T1, human TNFR2 ECD protein (Homo sapiens, UniProt P20333); assay: SPR off-target binding (selectivity) to human TNFR2 ECD
T1 construct: HRV 3C protease cleavage site (C); 6His (C, cleaved yes); made in house; host or cells: Sf21 insect cells (baculovirus), secreted
T1 sequence (P20333 23-257): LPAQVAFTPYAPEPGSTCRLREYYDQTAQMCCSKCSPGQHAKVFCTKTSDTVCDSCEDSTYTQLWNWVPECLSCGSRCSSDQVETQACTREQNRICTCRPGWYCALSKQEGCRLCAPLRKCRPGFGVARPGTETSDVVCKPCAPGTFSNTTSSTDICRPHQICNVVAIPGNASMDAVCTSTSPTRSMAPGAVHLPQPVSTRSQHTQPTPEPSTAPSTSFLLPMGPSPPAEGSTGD
Outline: (§1)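 Peptides are tested against captured biotin-tagged human TNFR1 ECD, with parallel TNFR2 ECD binding to check selectivity. Buffer: 10 mM HEPES pH 7.4, 150 mM NaCl, 3 mM EDTA, 0.05% P20, 2% DMSO.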

[1] = molecular target: T2, human soluble TNFR1 (sTNFR1) (Homo sapiens, UniProt P19438); assay: Human sTNFR1-peptide displacement assay (LanthaScreen Eu TR-FRET binding assay)
T2 construct: made in house; host or cells: Sf21 (baculovirus)
T2 sequence (P19438 with tags, fused parts or gaps): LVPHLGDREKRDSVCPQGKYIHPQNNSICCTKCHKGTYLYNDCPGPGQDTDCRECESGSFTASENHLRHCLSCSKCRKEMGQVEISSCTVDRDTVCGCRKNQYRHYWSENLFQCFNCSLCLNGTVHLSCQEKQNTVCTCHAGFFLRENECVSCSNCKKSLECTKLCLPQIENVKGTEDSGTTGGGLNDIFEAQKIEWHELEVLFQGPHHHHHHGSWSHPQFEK
Outline: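 Readout is the 665/615 nm TR-FRET ratio (Eu anti-His donor, streptavidin-Alexa647 acceptor), normalized to DMSO and saturating displacer, fit by Morrison-based five-parameter logistic for Kd^app. His-tagged sTNFR1 (1-211) prebound to 100 nM biotinylated peptide SEQ ID NO.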

[2] = molecular target: T3, human TNFR1 extracellular domain (ECD) protein (Homo sapiens, UniProt P19438); assay: SPR binding affinity to captured human TNFR1 ECD
T3 construct: HRV 3C protease cleavage site (C); 6His (C, cleaved yes); made in house; host or cells: Sf21 insect cells (baculovirus), secreted
T3 sequence (P19438 30-211): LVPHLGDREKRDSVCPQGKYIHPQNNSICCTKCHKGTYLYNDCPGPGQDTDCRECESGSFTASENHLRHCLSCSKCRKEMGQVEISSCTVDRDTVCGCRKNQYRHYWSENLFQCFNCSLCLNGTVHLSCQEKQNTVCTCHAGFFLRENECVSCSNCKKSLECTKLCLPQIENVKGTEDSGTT
Outline: as §1

`CCCCC[C@@H]1NC(=O)[C@@H]2CC[C@@H](C2)NC(=O)[C@H]([C@@H](C)c2c[nH]c3c(OC)cccc23)NC(=O)CN(C)C(=O)[C@H](Cc2cccc(C(N)=O)c2)NC(=O)[C@H](Cc2ccc(C(N)=O)cc2)NC(=O)[C@](C)(CO)NC(=O)[C@H](Cc2c[nH]c3c(C#N)cccc23)NC(=O)[C@H](Cc2ccc(C(=O)O)cc2)NC(=O)[C@H](CC(N)=O)NC(=O)[C@H]2C[C@H](N(C)C)CN2C(=O)[C@H](Cc2c[nH]c3ccccc23)NC(=O)[C@@H]2CC[C@@H](O)CN2C(=O)[C@H](Cc2ccncc2)NC1=O` [SEQ ID NO. 128] (cyclo([4Pal][Pip(5R-OH)]W[dPro(trans-4-NMe2)]N[Phe(4-COOH)][Trp(7-CN)][αMeS][Phe(4-CONH2)][Phe(3-CONH2)][Sar][Trp(βS-Me,7-OMe)][X1][Ahp(2)])) was tested, and the pKd (human TNFR2 ECD protein) was < 6.00, the pKd [1] was 10.05 and the pKd [2] was 10.70.
With `CCCC[C@@H]1NC(=O)[C@@H]2CC[C@@H](C2)NC(=O)[C@H]([C@@H](C)c2c[nH]c3c(OC)cccc23)NC(=O)CN(C)C(=O)[C@H](Cc2ccc(C(=O)O)cc2)NC(=O)[C@H](Cc2ccc(C(N)=O)cc2)NC(=O)[C@](C)(CO)NC(=O)[C@H](Cc2c[nH]c3c(C#N)cccc23)NC(=O)[C@H](Cc2ccc(C(=O)O)cc2)NC(=O)[C@H](CC(N)=O)NC(=O)CN(CCC(N)=O)C(=O)[C@H](Cc2c[nH]c3ccccc23)NC(=O)[C@@H]2CC[C@@H](O)CN2C(=O)[C@H](Cc2ccncc2)NC1=O` [SEQ ID NO. 130] (cyclo([4Pal][Pip(5R-OH)]W[Gly(Nα-CH2CH2CONH2)]N[Phe(4-COOH)][Trp(7-CN)][αMeS][Phe(4-CONH2)][Phe(4-COOH)][Sar][Trp(βS-Me,7-OMe)][X1][Nle])) the pKd (human TNFR2 ECD protein) was < 6.00, the pKd [1] was 11.00 and the pKd [2] was 10.22.
For `CCCC[C@@H]1NC(=O)[C@@H]2CC[C@@H](C2)NC(=O)[C@H]([C@@H](C)c2c[nH]c3c(OC)cccc23)NC(=O)CN(C)C(=O)[C@H](Cc2ccc(C(=O)O)cc2F)NC(=O)[C@H](Cc2ccc(S(N)(=O)=O)cc2)NC(=O)[C@](C)(CO)NC(=O)[C@H](Cc2c[nH]c3c(C#N)cccc23)NC(=O)[C@H](Cc2ccc(C(=O)O)cc2F)NC(=O)[C@H](CC(N)=O)NC(=O)[C@H]2C[C@H](OCC(=O)O)CN2C(=O)[C@H](Cc2c[nH]c3ncccc23)NC(=O)[C@@H]2CC[C@@H](O)CN2C(=O)[C@H](Cc2ccncc2)NC1=O` [SEQ ID NO. 134] (cyclo([4Pal][Pip(5R-OH)][Trp(7-aza)][dHyp](Carboxymethyl)N[Phe(2-F,4-COOH)][Trp(7-CN)][αMeS][Phe(4-SO2NH2)][Phe(2-F,4-COOH)][Sar][Trp(βS-Me,7-OMe)][X1][Nle])), the pKd (human TNFR2 ECD protein) was < 6.00, the pKd [1] was 10.22 and the pKd [2] was 10.30.
With `CCCCC[C@@H]1NC(=O)[C@@H]2CC[C@@H](C2)NC(=O)[C@H]([C@@H](C)c2c[nH]c3c(OC)cccc23)NC(=O)CN(C)C(=O)[C@H](Cc2ccc(C(N)=O)cc2)NC(=O)[C@H](Cc2ccc(C(N)=O)cc2)NC(=O)[C@](C)(CO)NC(=O)[C@H](Cc2c[nH]c3c(C#N)cccc23)NC(=O)[C@H](Cc2ccc(C(=O)O)cc2)NC(=O)[C@H](CC(N)=O)NC(=O)[C@H]2C[C@H](OCC(=O)O)CN2C(=O)[C@H](Cc2c[nH]c3ccccc23)NC(=O)[C@@H]2CNCCN2C(=O)[C@H](Cc2ccncc2)NC1=O` [SEQ ID NO. 140] (cyclo([4Pal][Pip(4-aza)]W[dHyp](Carboxymethyl)N[Phe(4-COOH)][Trp(7-CN)][αMeS][Phe(4-CONH2)][Phe(4-CONH2)][Sar][Trp(βS-Me,7-OMe)][X1][Ahp(2)])) the pKd (human TNFR2 ECD protein) was < 6.00, the pKd [1] was 10.22 and the pKd [2] was 10.30.
For `CCCC[C@@H]1NC(=O)[C@@H]2CC[C@@H](C2)NC(=O)[C@H]([C@@H](C)c2c[nH]c3c(OC)cccc23)NC(=O)CN(C)C(=O)[C@H](Cc2ccc(O)cc2)NC(=O)[C@H](Cc2ccc(C(=O)O)cc2)NC(=O)[C@](C)(CO)NC(=O)[C@H](Cc2c[nH]c3c(Cl)cccc23)NC(=O)[C@H](Cc2ccncc2)NC(=O)[C@H](CC(N)=O)NC(=O)CN(C)C(=O)[C@H](Cc2c[nH]c3ccccc23)NC(=O)[C@@H]2CNCCN2C(=O)[C@H](Cc2ccncc2)NC1=O` [SEQ ID NO. 141] (cyclo([4Pal][Trp(7-Cl)][αMeS][Phe(4-COOH)]Y[Sar][Trp(βS-Me,7-OMe)][X1][Nle][4Pal][Pip(4-aza)]W[Sar]N)), the pKd (human TNFR2 ECD protein) was < 6.00, the pKd [1] was 9.77 and the pKd [2] was 10.22.
